Assay results as given in paper PMC10258794, “To Fold or Not to Fold: Diastereomeric Optimization of an α-Helical Antimicrobial Peptide” (Journal of Medicinal Chemistry, 2023).
Values after ≈ are worked out from the molar mass of the structure shown. Like-named read-outs stand apart in the source and are kept apart here. Non-standard residues stand in square brackets, D forms with d. Residues, ends and D or L forms follow the SMILES beside them. No end group written: not given here.

Columns and labels:
[1] = system: human red blood cells; test: Hemolysis assay (MHC)
Protocol: To determine the MHC stock solutions, 8 mg/mL peptide in PBS (pH 7.4) was prepared, and 50 μL was diluted serially by l/2 in 50 μL of PBS (pH 7.4) in a 96-well plate (Costar or Nunc, polystyrene, untreated). […] Plasma was discarded, and the pellet was re-suspended in a 15 mL Falcon tube in 5 mL of PBS. The washing was repeated three times, and the remaining pellet was re-suspended in 10 mL of PBS. The hRBC suspension (50 μL) was added to each well, and the plate was incubated at room temperature for 4 h. MHC end points were determined by visual determination of the wells after the incubation period. Controls on each plate included a blank medium control (50 μL PBS + 50 μL of hRBCs suspension) and a hemolytic activity control (mQ-deionized water 50 μL + 50 μL hRBC suspension).

[2] = EYPG vesicle leakage assay; type: biochemical; settings: 10 μg/mL of compound; 10 mM TRIS, 107 mM NaCl, pH 7.4
Protocol: 5(6)-carboxyfluorescein (CF) was purchased from Sigma. EYPC, EYPG, and a Mini-Extruder were purchased from Avanti Polar Lipids. Egg PC or Egg PG thin lipid layers were prepared by evaporating a solution of 100 mg of EYPC or EYPG in 4 mL of MeOH/CHCl3 (1:1) on a rotary evaporator at room temperature and then dried in vacuo overnight. […] Extravesicular components were removed by gel filtration (Sephadex G-50) with 10 mM TRIS, 107 mM NaCl, pH 7.4 buffer. Final conditions: ∼2.5 mM PC or PG; inside: 50 mM CF, 10 mM TRIS, 10 mM NaCl, pH 7.4 buffer; outside: 10 mM TRIS, 107 mM NaCl, pH 7.4. […] The CF efflux was monitored at λem 517 nm (λex 492 nm) as a function of time after addition of the desired volume of peptide from 2 mg/mL stock in mQ water at t = 45 s, 10 and 50 μg/mL were monitored for both EYPC and EYPG. […] Fluorescence intensities were then normalized to the maximal emission intensity using I(t) = (It – I0)/(I∞ – I0) where I0 = It at peptide addition, I∞ = It at saturation of lysis.

[3] = EYPC vesicle leakage assay; type: biochemical; settings: 10 μg/mL of compound; 10 mM TRIS, 107 mM NaCl, pH 7.4
In short: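 Egg PC or egg PG vesicles (~2.5 mM lipid) were loaded with 50 mM CF in 10 mM TRIS pH 7.4, with 10 mM TRIS/107 mM NaCl outside. Peptide at 10 or 50 μg/mL was added at 45 s, and CF efflux was followed at λex 492/λem 517 nm, normalized to complete lysis.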

[4] = CD spectroscopy, α-helix content; type: physicochemical; settings: 5 mM DPC in 7 mM PB buffer pH 7.4, Dichroweb Contin LL set 4
Protocol: CD experiments were measured on a Jasco J-715 spectropolarimeter. All the experiments were performed using Hellma Suprasil 110-QS 0.1 cm cuvettes. For each peptide, the measurements were performed in phosphate buffer (PB, pH = 7.4, 7 mM), 10% TFE, 20% TFE, 5 mM DPC. The buffer was degassed for 10 min under high vacuum before each set of experiments. The concentration of the peptides was 0.100 mg/mL, and each sample was measured in one accumulation. The scan rate was 20 nm/min, pitch was 0.5 nm, response was 16 s, and bandwidth was 1.0 nm. The nitrogen flow was kept >8 L/min. After each measurement, the cuvettes were washed successively with milli-Q H2O and PB (pH 7.4). The baseline was recorded under the same conditions and subtracted manually. Primary CD spectra were analyzed using DichroWeb[58] and Contin-LL method (set 4).[74]

[5] = system: A. baumannii ATCC19606
In short: (§1)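 A colony was grown overnight in LB at 37 °C, diluted in MH medium pH 7.4 to OD600 0.022 and added to 1/2 serial dilutions of compound (final about 5 × 10^5 CFU).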

[6] = system: E. coli W3110
In short: as §1

[7] = system: K. pneumoniae NCTC418
In short: as §1

[8] = system: P. aeruginosa PAO1
In short: as §1

[9] = system: Pseudomonas aeruginosa, Klebsiella pneumoniae, Acinetobacter baumannii, Escherichia coli, and methicillin-resistant Staphylococcus aureus; settings: summary of Table 1
In short: as §1

[10] = system: S. aureus COL MRSA; settings: for MIC S. aureus COL MRSA: MH broth pH 7.4, 16–20 h, 37 °C
In short: as §1

[11] = system: Burkolderia cenocepacia; test: microbe, parasite or virus in culture
[12] = system: Enterobacter cloacae; test: microbe, parasite or virus in culture; settings: pH 7.4
In short: as §1

[13] = system: P. aeruginosa PA14; test: microbe, parasite or virus in culture
In short: as §1

[14] = system: P. aeruginosa ZEM-1A; test: microbe, parasite or virus in culture; settings: pH 7.4
In short: as §1

[15] = system: PA14 2P4 (pmrB); test: microbe, parasite or virus in culture; settings: supplementary CSV
In short: as §1

[16] = system: PA14 4.13 (phoQ); test: microbe, parasite or virus in culture; settings: supplementary CSV
In short: as §1

[17] = system: PA14 4.18 (pmrB); test: microbe, parasite or virus in culture; settings: supplementary CSV
In short: as §1

[18] = system: P. aeruginosa ZEM9A; test: microbe, parasite or virus in culture; type: cell-based, Pseudomonas aeruginosa; settings: pH 7.4
In short: as §1

[19] = system: K. pneumoniae Oxa-48; test: MIC broth microdilution, K. pneumoniae Oxa-48; type: cell-based, Klebsiella pneumoniae; settings: MDR strain; MH broth pH 7.4, 16–20 h, 37 °C
In short: as §1

[20] = system: Stenotrophomonas maltophilia; test: microbe, parasite or virus in culture; type: cell-based; settings: pH 7.4
In short: as §1

[21] = system: Staphylococcus epidermis; test: MIC broth microdilution, Staphylococcus epidermis; type: cell-based; settings: pH 7.4
In short: as §1

[22] = system: HEK293 cells; test: Alamar blue cytotoxicity, HEK293; type: cell-based, human; settings: 24 h, mean ± SD, n = 3, read-out: Toxicity on HEK293 cells
In short: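 Cells seeded 4000/well (HEK293, DMEM) or 8000/well (A549, RPMI-1640) with 10% FBS, then exposed to increasing compound concentrations for 24 h at 37 °C, 5% CO2. AlamarBlue (10%) added for 3–5 h; fluorescence ex 560/em 590 nm, normalized to untreated cells.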

[23] = system: A549 cells; test: Alamar blue cytotoxicity, A549; type: cell-based, human; settings: 24 h, mean ± SD, n = 3, read-out: Toxicity on A549 lung cancern cells
Protocol: The A549 human lung adenocarcinoma cells are derived from a patient and were kindly given to us by Dr. Georgia Konstatinidou (Pharmacology Institute, Bern University). HEK293T cells were obtained from ATCC (CRL-11268). A549 and HEK293 were cultured in an incubator at 37 °C with 5% CO2 in RPMI-1640 (Gibco) and DMEM (Gibco) containing 10% fetal bovine serum (Thermo Fisher), 100 I.U./mL penicillin, and 100 μg/mL streptomycin (Gibco).
The viability of the cells was assessed with an AlamarBlue assay (ThermoFisher). Cells were seeded into 96-well plates, 4000 cells/well (HEK293) and 8000 cells/well (A549), the day before the experiment. Cells were then treated with the increasing concentration of the compound and incubated for 24 h at 37 °C in the presence of 5% CO2. The next day, the medium was removed and replaced by a 10% AlamarBlue solution in full growth medium (DMEM or RPMI-1640). The cells were incubated for 3–5 h at 37 °C with 5% CO2 in a humidified atmosphere. The fluorescence was then measured on a Tecan Infinite M1000 Pro plate reader at λex 560 nm and λem 590 nm. The value was normalized according to the untreated cells.

[24] = 24 h, […] human serum in TRIS buffer pH 7.4, 37 °C
Protocol: Human serum was diluted in 0.1 M filtered TRIS buffer (pH 7.4) (25%, 1:3, v/v). Selected peptides were diluted in 0.1 M filtered TRIS buffer (pH 7.4) to a concentration of 400 μM, and 0.1 mg/mL 4- hydroxybenzoic acid was added as an internal standard. Aliquots of peptide solution (50 μL) were added to aliquots of serum (50 μL) in sterile Eppendorf tubes, to reach a peptide concentration of 200 μM during the assay. Samples were incubated at 37 °C under gentle stirring (350 rpm). Different samples (triplicates) were quenched at different time points (0/1/6/12/24 h) by precipitating serum proteins through the addition of ZnSO4·7 H2O/ACN (1:1) (0.1 M, 100 μL) and cooling in ice bath for 10 min. Protein precipitates were pelleted under centrifugation, and supernatants were then sampled and analyzed by LC–MS. Experiment controls included two references, one known to be degraded and one known to be undegraded. Peaks corresponding to the internal standard and the undegraded peptides were integrated, with the ratio peptide/standard at t = 0 h as 100%.

[25] = system: S. aureus Newman
[26] = target: the molecule itself; test: crystal structure; co-crystallisation of the C-fucosylated peptide with LecB, sitting drop vapor diffusion, 18 °C; LecB 5 mg/mL in water with 6 mM CaCl2 and MgCl2; peptide at 5:1 molar excess over the LecB monomer
[27] = MH broth pH 7.4, 16–20 h, 37 °C
[28] = supplementary CSV, ranges of Table 1 given as one number

CC(C)C[C@H](NC(=O)[C@H](CC(C)C)NC(=O)[C@H](CC(C)C)NC(=O)[C@@H](CCCCN)NC(=O)[C@H](CC(C)C)NC(=O)[C@H](CC(C)C)NC(=O)[C@@H](CCCCN)NC(=O)[C@H](CC(C)C)NC(=O)[C@H](CC(C)C)NC(=O)[C@@H](CCCCN)NC(=O)[C@@H](CCCCN)NC(=O)[C@H](CC(C)C)NC(=O)[C@H](CC(C)C)NC(=O)[C@H](CC(C)C)NC(=O)[C@@H](CCCCN)NC(=O)[C@H](CC(C)C)NC(=O)[C@H](CC(C)C)NC(=O)[C@@H](CCCCN)NC(=O)[C@H](CC(C)C)NC(=O)[C@H](CC(C)C)NC(=O)[C@@H](CCCCN)NC(=O)[C@H](N)CCCCN)C(N)=O [2ln69, (kkLLkLLkLLL)2] (H-[dK][dK]LL[dK]LL[dK]LLL[dK][dK]LL[dK]LL[dK]LLL-NH2)
MHC [1]: < 15.6 µg/mL
MHC ([1]; pH 7.4): <15.6 µg/mL
EYPG vesicle leakage (%) [2]: 71%
EYPC vesicle leakage (%) [3]: 74%
α-helix content (%) [4]: 82%
MIC A. baumannii ATCC19606 ([5]; ATCC19606): >64 µg/mL
MIC A. baumannii ATCC19606 [5, 27]: >64 µg/mL
MIC E. coli W3110 [6, 27]: >64 µg/mL
MIC E. coli W3110 [6, 28]: >64 µg/mL
MIC K. pneumoniae NCTC418 [7, 27]: >64 µg/mL
MIC P. aeruginosa PAO1 [8, 27]: >64 µg/mL
MIC P. aeruginosa PAO1 ([8]; PAO1): >64 µg/mL
MIC, span over the five bacterial strains [9]: entirely inactive
MIC S. aureus COL ([10]; COL): >64 µg/mL
MIC S. aureus COL MRSA [10]: >64 µg/mL

CC(C)C[C@@H](NC(=O)[C@@H](CC(C)C)NC(=O)[C@@H](CC(C)C)NC(=O)[C@H](CCCCN)NC(=O)[C@@H](CC(C)C)NC(=O)[C@@H](CC(C)C)NC(=O)[C@H](CCCCN)NC(=O)[C@@H](CC(C)C)NC(=O)[C@@H](CC(C)C)NC(=O)[C@H](CCCCN)NC(=O)[C@@H](N)CCCCN)C(N)=O [dln69, KKllKllKlll]
MIC Burkolderia cenocepacia ([11]; MDR strain, MH broth pH 7.4, 16–20 h, 37 °C): >64 µg/mL
MIC B. cenocepacia ([11]; supplementary CSV): > 64 µg/mL
MIC Enterobacter cloacae [12]: 4 µg/mL (≈ 3.03 µM)
MIC PA14 [13, 27]: 1 µg/mL (≈ 0.757 µM)
MIC P. aeruginosa PA14 ([13]; supplementary CSV): 1 µg/mL (≈ 0.757 µM)
MIC ZEM-1A [14]: 4 µg/mL (≈ 3.03 µM)
MIC P. aeruginosaPA14 2P4 [15]: 16 µg/mL (≈ 12.1 µM)
MIC P. aeruginosa PA14 4.13 [16]: 2 µg/mL (≈ 1.51 µM)
MIC P. aeruginosa PA14 4.18 [17]: 8 µg/mL (≈ 6.05 µM)
MIC ZEM9A [18]: 8 µg/mL (≈ 6.05 µM)
MIC K. pneumoniae Oxa-48 [19]: 8 µg/mL (≈ 6.05 µM)
MIC Stenotrophomonas maltophilia [20]: 2 µg/mL (≈ 1.51 µM)
MIC Staphylococcus epidermis [21]: 4 µg/mL (≈ 3.03 µM)
IC50 [22]: 87 ± 2 µM
IC50 [23]: 7.2 ± 6.5 µM
serum stability [24]: entirely degraded
MIC A. baumannii ATCC19606 [5, 27]: 2 µg/mL (≈ 1.51 µM)
MIC A. baumannii ATCC19606 [5, 28]: 2 µg/mL (≈ 1.51 µM)
MIC E. coli W3110 [6, 27]: 0.5 to 1 µg/mL
MIC E. coli W3110 [6, 28]: 1 µg/mL (≈ 0.757 µM)
MIC K. pneumoniae NCTC418 [7, 27]: 4 µg/mL (≈ 3.03 µM)
MIC K. pneumoniae NCTC418 [7, 28]: 4 µg/mL (≈ 3.03 µM)
MIC P. aeruginosa PAO1 [8, 27]: 2 to 4 µg/mL
MIC P. aeruginosa PAO1 [8, 28]: 3 µg/mL (≈ 2.27 µM)
MIC S. aureus COL MRSA [10]: 2 µg/mL (≈ 1.51 µM)
MIC S. aureus COL [10, 28]: 2 µg/mL (≈ 1.51 µM)
MIC S. aureus Newman [25, 27]: 1 µg/mL (≈ 0.757 µM)
MIC S. aureus Newmann ([25]; supplementary CSV): 1 µg/mL (≈ 0.757 µM)

B1: FHP30 (peptide)
peptide: {α‑L‑fucosyl‑acetyl}-K[dK]L[dL]K[dL]L[dK]L[dL]L
notes: also called fucosylated analogue of HP30; source: synthetic peptide (Fmoc solid-phase synthesis on Tentagel S RAM resin, preparative RP-HPLC)
stoichiometry N [26]: 4
